Data published in article PMC11413964, “Discovery of 1,3-disubstituted prop-2-en-1-one derivatives as inhibitors of neutrophilic inflammation via modulation of MAPK and Akt pathways” (Journal of Enzyme Inhibition and Medicinal Chemistry, 2024).

What was measured:
[1] = tested on: fMLF/cytochalasin B (CB)-activated human neutrophils; experiment: Elastase release in fMLF/CB-activated human neutrophils; type: cell-based; conditions: Homo sapiens, Neutrophil, fMLF/CB stimulation, mean ± SEM (n = 3–5); for inhibition at 10 µM: 10 μM compound
Description: (§1) The study involving neutrophils was approved by the Institutional Review Board of Chang Gung Memorial Hospital under IRB number: 201902217A3 and was conducted in accordance with the principles of the Declaration of Helsinki. Healthy volunteers aged 20–35 years provided signed informed consents for blood collection. Isolation of neutrophils was done using dextran sedimentation, Ficoll-Hypaque density gradient centrifugation, and hypotonic haemolysis. For the anti-inflammatory studies, neutrophils were suspended in Hank’s balanced salt solution (HBSS) containing 1 mM Ca^2+ at a pH of 7.4[72].
Neutrophils were subsequently stimulated with fMLF (0.1 μM) and CB (0.5 μg/mL) for 13 min. […] LY294002 was used as a positive control.

[2] = tested on: fMLF/cytochalasin B (CB)-activated human neutrophils; experiment: Superoxide anion generation (ferricytochrome c reduction) in fMLF/CB-activated human neutrophils; type: cell-based; conditions: Neutrophil, fMLF/CB stimulation, mean ± SEM (n = 3–5); for inhibition at 10 µM: 10 μM compound
Description: as §1
The reduction of ferricytochrome c was utilised to measure the production of SO anions in activated human neutrophils. […] The neutrophils were then stimulated with fMLF (0.1 μM) and CB (1 μg/mL) for 13 min. […] LY294002 was used as a positive control.

| Structure (SMILES) | melting point | IC50 [1] | IC50 [2] | inhibition at 10 µM [1] | inhibition at 10 µM [2] |
| --- | --- | --- | --- | --- | --- |
| CC(C)(C)C(=O)/C=C/c1ccc(Cl)cc1 [Compound 1, (E)-1-(4-Chlorophenyl)-4,4-dimethylpent-1-en-3-one] | 85 to 85.5 °C |  |  | 8.43 ± 4.28% | 23.4 ± 7.96% |
| O=C(/C=C/c1ccc([N+](=O)[O-])cc1)C1CCCCC1 [Compound 3a, (E)-1-Cyclohexyl-3-(4-nitrophenyl)prop-2-en-1-one] | 132 to 134 °C |  |  | 11.9 ± 4.68% | 11.4 ± 1.6% |
| COc1ccccc1C(=O)/C=C/c1ccc([N+](=O)[O-])cc1 [Compound 5a, (E)-1-(2-Methoxyphenyl)-3-(4-nitrophenyl)prop-2-en-1-one] | 116.5 to 118 °C | 6.25 ± 0.52 µM | 3.77 ± 0.33 µM | 75.6 ± 5.02% | 102 ± 1.92% |
| COc1ccc(C(=O)/C=C/c2ccc([N+](=O)[O-])cc2)cc1 [Compound 7a, (E)-1-(4-Methoxyphenyl)-3-(4-nitrophenyl)prop-2-en-1-one] |  | 6.33 ± 1.15 µM | 6.9 ± 0.67 µM | 63.8 ± 6.59% | 59.7 ± 1.41% |
| CC(C)(C)C(=O)/C=C/c1cccc([N+](=O)[O-])c1 [Compound 8, (E)-4,4-Dimethyl-1-(3-nitrophenyl)pent-1-en-3-one] | 92 to 93 °C |  |  | 4.89 ± 0.91% | 10.3 ± 2.86% |
| CC(C)(C)C(=O)/C=C/c1ccc(C#N)cc1 [Compound 9, (E)-4-(4,4-Dimethyl-3-oxopent-1-en-1-yl)benzonitrile] | 131 to 133 °C |  |  | 3.76 ± 2.69% | 20.9 ± 5.55% |
| O=C(/C=C/c1ccc([N+](=O)[O-])cc1)c1ccc2c(c1)OCO2 [Compound 9a, (E)-1-(Benzo[d][1,3]dioxol-5-yl)-3-(4-nitrophenyl)prop-2-en-1-one] | 182.4 °C |  |  | 16.7 ± 6.07% | 18.1 ± 3.34% |
| Cc1ccc(/C=C/C(=O)C(C)(C)C)cc1 [Compound 10, (E)-4,4-Dimethyl-1-(p-tolyl)pent-1-en-3-one] | 79 to 80 °C |  |  | 3.91 ± 2.82% | 8.56 ± 3.04% |
| CC(C)(C)Oc1ccc(/C=C/C(=O)C(C)(C)C)cc1 [Compound 11, (E)-1-(4-(tert-Butoxy)phenyl)-4,4-dimethylpent-1-en-3-one] | 110 to 111 °C |  |  | 12.1 ± 3.43% | 16.8 ± 3.85% |
| CC(C)(C)Oc1ccc(/C=C/C(=O)c2ccco2)cc1 [Compound 12, (E)-3-(4-(tert-Butoxy)phenyl)-1-(furan-2-yl)prop-2-en-1-one] | 132.8 to 134.8 °C |  |  | 19.2 ± 4.05% | 27.3 ± 2.07% |
| COc1cccc(C(=O)/C=C/c2ccc(Cl)cc2)c1 [Compound 13a, (E)-3-(4-Chlorophenyl)-1-(3-methoxyphenyl)prop-2-en-1-one] |  | 3.3 ± 0.68 µM | 1.37 ± 0.73 µM | 91.9 ± 1.63% | 101.7 ± 0.44% |
| CC(C)(C)C(=O)/C=C/c1cc(F)cc(F)c1 [Compound 14, (E)-1-(3,5-Difluorophenyl)-4,4-dimethylpent-1-en-3-one] | 71 to 72 °C |  | 6.52 ± 0.57 µM | 12 ± 3.52% | 69.1 ± 6.71% |
| COc1ccc(C(=O)/C=C/c2ccc(Cl)cc2)c(OC)c1 [Compound 15a, (E)-3-(4-Chlorophenyl)-1-(2,4-dimethoxyphenyl)prop-2-en-1-one] |  |  |  | 4.42 ± 3.9% | 13.9 ± 2.43% |
| COc1ccc(C(=O)/C=C/c2ccc(Cl)cc2)cc1OC [Compound 16a, (E)-3-(4-Chlorophenyl)-1-(3,4-dimethoxyphenyl)prop-2-en-1-one] |  |  | 5.53 ± 1.48 µM | 22.9 ± 7.11% | 68.2 ± 7.74% |
| COc1ccccc1C(=O)/C=C/c1ccccc1Cl [Compound 17a, (E)-3-(2-Chlorophenyl)-1-(2-methoxyphenyl)prop-2-en-1-one] | 60 to 62 °C | 5.36 ± 0.67 µM | 2.95 ± 0.4 µM | 75.8 ± 6.19% | 99.05 ± 0.64% |
| COc1ccc(C(=O)/C=C/c2ccccc2Cl)cc1 [Compound 19a, (E)-3-(2-Chlorophenyl)-1-(4-methoxyphenyl)prop-2-en-1-one] |  |  | 5.23 ± 0.62 µM | 37.6 ± 3.54% | 80.2 ± 1.98% |
| COc1ccc(C(=O)/C=C/c2ccccc2Cl)cc1OC [Compound 20a, (E)-3-(2-Chlorophenyl)-1-(3,4-dimethoxyphenyl)prop-2-en-1-one] |  | 6.79 ± 0.72 µM | 3.55 ± 0.56 µM | 67.7 ± 5.37% | 95.6 ± 1.14% |
| CC(C)(C)C(=O)/C=C/c1ccc(Br)s1 [Compound 24, (E)-1-(5-Bromothiophen-2-yl)-4,4-dimethylpent-1-en-3-one] |  |  |  | 25.7 ± 5.36% | 13 ± 6.88% |
| CCOc1ccccc1C(=O)/C=C/c1ccc(Br)s1 [Compound 25, (E)-3-(5-Bromothiophen-2-yl)-1-(2-ethoxyphenyl)prop-2-en-1-one] |  |  | 6.21 ± 0.36 µM | 26.9 ± 5.5% | 67.8 ± 3.19% |
| CC(C)(C)C(=O)/C=C/c1ccc2ccccc2n1 [Compound 27, (E)-4,4-Dimethyl-1-(quinolin-2-yl)pent-1-en-3-one] |  |  |  | 5.21 ± 2.72% | 2.26 ± 0.97% |
| O=c1cc(N2CCOCC2)oc2c(-c3ccccc3)cccc12 [LY294002, reference compound] |  |  |  | 82.5 ± 3.76% | 102 ± 2.64% |

Continued, in another order:

| melting point | IC50 [1] | IC50 [2] | Structure (SMILES) | inhibition at 10 µM [1] | inhibition at 10 µM [2] |
| --- | --- | --- | --- | --- | --- |
| 118.9 to 120 °C |  |  | O=C(/C=C/c1ccc([N+](=O)[O-])cc1)C1CC1 [Compound 1a, (E)-1-Cyclopropyl-3-(4-nitrophenyl)prop-2-en-1-one] | 2.36 ± 3.3% | 20.5 ± 4.05% |
|  | 7.78 ± 0.96 µM | 3.01 ± 0.68 µM | O=C(/C=C/c1ccc(Cl)cc1)c1ccccc1 [Compound 2, (E)-3-(4-Chlorophenyl)-1-phenylprop-2-en-1-one] | 62 ± 6.31% | 94.7 ± 3.22% |
| 133.1 °C |  |  | CC1(C(=O)/C=C/c2ccc([N+](=O)[O-])cc2)CC1 [Compound 2a, (E)-1-(1-Methylcyclopropyl)-3-(4-nitrophenyl)prop-2-en-1-one] | 8.39 ± 2.25% | 8.75 ± 5.03% |
| 101 °C |  |  | CC(C)(C)C(=O)/C=C/c1ccc(Br)cc1 [Compound 3, (E)-1-(4-Bromophenyl)-4,4-dimethylpent-1-en-3-one] | 9.09 ± 2.01% | 25 ± 2.48% |
| 70 to 71 °C |  |  | CC(C)(C)C(=O)/C=C/c1ccc(C(F)(F)F)cc1 [Compound 4, (E)-4,4-Dimethyl-1-(4-(trifluoromethyl)phenyl)pent-1-en-3-one] | 1.18 ± 0.98% | 11.7 ± 5.39% |
| 128 to 129 °C | 7.22 ± 1.16 µM | 4.55 ± 0.1 µM | Cc1ccccc1C(=O)/C=C/c1ccc([N+](=O)[O-])cc1 [Compound 4a, (E)-3-(4-Nitrophenyl)-1-(o-tolyl)prop-2-en-1-one] | 63.8 ± 5.98% | 100 ± 2.65% |
| 70.5 to 71.5 °C |  | 1.81 ± 0.22 µM | CCOc1ccccc1C(=O)/C=C/c1ccccc1C(F)(F)F [Compound 5, (E)-1-(2-Ethoxyphenyl)-3-(2-(trifluoromethyl)phenyl)prop-2-en-1-one] | 8.13 ± 3.43% | 68.3 ± 8.99% |
| 153 to 155 °C | 6.17 ± 0.1 µM | 4.35 ± 0.3 µM | O=C(/C=C/c1ccc([N+](=O)[O-])cc1)c1ccccn1 [Compound 7, (E)-3-(4-Nitrophenyl)-1-(pyridin-2-yl)prop-2-en-1-one] | 78.1 ± 0.36% | 94.5 ± 2.89% |
| 189 to 191 °C | 8.31 ± 0.78 µM | 2.72 ± 0.35 µM | COc1ccc(C(=O)/C=C/c2ccc([N+](=O)[O-])cc2)cc1OC [Compound 8a, (E)-1-(3,4-Dimethoxyphenyl)-3-(4-nitrophenyl)prop-2-en-1-one] | 56.9 ± 3.22% | 81 ± 2.57% |
| 162 to 164 °C |  |  | O=C(/C=C/c1ccc(Cl)cc1)c1ccc2ccccc2c1 [Compound 10a, (E)-3-(4-Chlorophenyl)-1-(naphthalen-2-yl)prop-2-en-1-one] | 33.2 ± 6.47% | 14.2 ± 6.87% |
| 76 to 78 °C | 7.56 ± 1.05 µM | 3.47 ± 0.6 µM | COc1ccccc1C(=O)/C=C/c1ccc(Cl)cc1 [Compound 12a, (E)-3-(4-Chlorophenyl)-1-(2-methoxyphenyl)prop-2-en-1-one] | 62.2 ± 5.35% | 93.8 ± 3.02% |
|  |  | 6.09 ± 7.19 µM | COc1ccc(C(=O)/C=C/c2ccc(Cl)cc2)cc1 [Compound 14a, (E)-3-(4-Chlorophenyl)-1-(4-methoxyphenyl)prop-2-en-1-one] | 5.49 ± 4.32% | 58.9 ± 3.26% |
| 94 to 96 °C |  |  | CC(C)(C)C(=O)/C=C/c1ccc(Cl)c(Cl)c1 [Compound 16, (E)-1-(3,4-Dichlorophenyl)-4,4-dimethylpent-1-en-3-one] | 10.2 ± 0.59% | 16.5 ± 4.67% |
| 98.5 to 99.2 °C |  |  | CC(C)(C)C(=O)/C=C/c1ccc(Cl)c(F)c1 [Compound 17, (E)-1-(4-Chloro-3-fluorophenyl)-4,4-dimethylpent-1-en-3-one] | 9.13 ± 1.78% | 40.6 ± 3.89% |
